Usually pEC50 stands for −log10 of the EC50, conventionally taken in molar units.

This note sets out measurements from patent US11319298B2 (Merck Sharp & Dohme Corp., priority 2016, dated 2022).

This test deals with T1, human M4 muscarinic acetylcholine receptor (Homo sapiens, UniProt P08173).
T1 construct: expressed in transfected cells; host or cells: CHO-K1
T1 sequence (P08173 1-479): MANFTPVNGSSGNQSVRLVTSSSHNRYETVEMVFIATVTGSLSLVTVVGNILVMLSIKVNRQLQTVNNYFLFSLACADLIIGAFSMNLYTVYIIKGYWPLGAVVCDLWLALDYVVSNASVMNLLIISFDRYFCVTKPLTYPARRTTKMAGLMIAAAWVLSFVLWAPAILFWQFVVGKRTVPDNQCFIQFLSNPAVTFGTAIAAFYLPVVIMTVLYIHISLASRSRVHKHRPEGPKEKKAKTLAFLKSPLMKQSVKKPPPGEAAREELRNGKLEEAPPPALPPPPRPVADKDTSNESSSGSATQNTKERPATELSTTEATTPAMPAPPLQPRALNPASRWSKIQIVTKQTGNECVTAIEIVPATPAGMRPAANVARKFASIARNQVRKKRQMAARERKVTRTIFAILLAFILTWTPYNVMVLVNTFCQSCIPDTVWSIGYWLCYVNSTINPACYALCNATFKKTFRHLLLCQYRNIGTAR
Kind of test: human FLIPR-based M4 PAM assay, CHO-K1 cells stably transfected with human M4 receptor and chimeric G-protein Gαqi5. The note with it: inflection point (IP) of dose response curve; acetylcholine added at 20% of maximum response; CHO-K1 human M4/Gαqi5, FLIPR Tetra. It is filed as cell-based. The gist of the method:
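CHO-K1 cells were loaded with calcium dye at 37 °C for ~1 h. Fluorescence (ex 470–495/em 515–575 nm) was read for 4 min after test compound at increasing concentrations, then 3.5 min after acetylcholine at an EC20; sometimes a third addition at EC70 followed. The value is the inflection point of a 4-parameter logistic fit.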

pEC50: −log10 of the molar value.

`Cc1cc(C(=O)NCc2ccncc2)nnc1N1CCC(Oc2cccnc2)CC1` [Example 122, 5-methyl-N-(pyridin-4-ylmethyl)-6-[4-(pyridin-3-yloxy)piperidin-1-yl]pyridazine-3-carboxamide] gave a pEC50 of 7.00.
With `COc1ccc(OC2CCN(c3nnc(C(=O)NCCc4cn[nH]c4)cc3C)CC2)cn1` [Example 123, 6-{4-[(6-methoxypyridin-3-yl)oxy]piperidin-1-yl}-5-methyl-N-[2-(1H-pyrazol-4-yl)ethyl]pyridazine-3-carboxamide] the figure was 7.00.
To `Cc1cc(C(=O)NC2C3CC2C3)nnc1N1CCC(Oc2ccc3[nH]ncc3c2)CC1` (stereo not drawn) [Example 124, N-bicyclo[1.1.1]pent-2-yl-6-[4-(1H-indazol-5-yloxy)piperidin-1-yl]-5-methylpyridazine-3-carboxamide] belongs 7.00; to `COc1ccc(O[C@@H]2CCN(c3nnc(C(=O)NCc4ccncc4)cc3C)C[C@@H]2F)cn1` [Example 125, 6-{(3S,4R)-3-fluoro-4-[(6-methoxypyridin-3-yl)oxy]piperidin-1-yl}-5-methyl-N-(pyridin-4-ylmethyl)pyridazine-3-carboxamide], 6.99.
To `COc1ccc(OC2CCN(c3nnc(C(=O)N[C@@H]4CCc5cccnc5C4)cc3C)CC2)cn1` [Example 126A, (R)-6-{4-[(6-methoxypyridin-3-yl)oxy]piperidin-1-yl}-5-methyl-N-(5,6,7,8-tetrahydroquinolin-7-yl)pyridazine-3-carboxamide] belongs 6.96; to `COc1ccc(OC2CCN(c3nnc(C(=O)N[C@H]4CCc5cccnc5C4)cc3C)CC2)cn1` [Example 126B, (S)-6-{4-[(6-methoxypyridin-3-yl)oxy]piperidin-1-yl}-5-methyl-N-(5,6,7,8-tetrahydroquinolin-7-yl)pyridazine-3-carboxamide], 6.80.
For `COc1ccc(OC2CCN(c3nnc(C(N)=O)cc3C)CC2)cn1` [Example 127, 6-{4-[(6-methoxypyridin-3-yl)oxy]piperidin-1-yl}-5-methylpyridazine-3-carboxamide], the pEC50 was 6.94.
With `CONC(=O)c1cc(C)c(N2CCC(Oc3ccc(OC)nc3)CC2)nn1` [Example 128, N-methoxy-6-{4-[(6-methoxypyridin-3-yl)oxy]piperidin-1-yl}-5-methylpyridazine-3-carboxamide] the figure was 6.92; with `CNC(=O)c1cc(C)c(N2CCC(Oc3ccc(OC)nc3)CC2)nn1` [Example 129, 6-{4-[(6-methoxypyridin-3-yl)oxy]piperidin-1-yl}-N,5-dimethylpyridazine-3-carboxamide], 6.92.
In turn, `Cc1cc(C(=O)N[C@H]2CCc3ncccc3C2)nnc1N1CCC(Oc2cccc(C#N)c2)CC1` [Example 130A, (S)-6-[4-(3-cyanophenoxy)piperidin-1-yl]-5-methyl-N-(5,6,7,8-tetrahydroquinolin-6-yl)pyridazine-3-carboxamide] had a pEC50 of 6.90.
To `Cc1cc(C(=O)N[C@@H]2CCc3ncccc3C2)nnc1N1CCC(Oc2cccc(C#N)c2)CC1` [Example 130B, (R)-6-[4-(3-cyanophenoxy)piperidin-1-yl]-5-methyl-N-(5,6,7,8-tetrahydroquinolin-6-yl)pyridazine-3-carboxamide] belongs 6.60; to `Cc1cc(C(=O)NC2C3CC2C3)nnc1N1CCC(Oc2ccc3c(c2)OCCO3)CC1` (stereo not drawn) [Example 131, N-bicyclo[1.1.1]pent-2-yl-6-[4-(2,3-dihydro-1,4-benzodioxin-6-yloxy)piperidin-1-yl]-5-methylpyridazine-3-carboxamide], 6.90; to `CONC(=O)c1cc(C)c(N2CCC(Oc3cccc(C#N)c3)CC2)nn1` [Example 132, 6-[4-(3-cyanophenoxy)piperidin-1-yl]-N-methoxy-5-methypyridazine-3-carboxamide], 6.86.
With `Cc1cc(C(=O)NC2CCc3ncccc3C2)nnc1N1CCC(OCC2CC2)CC1` (stereo not drawn) [Example 133, 6-[4-(cyclopropylmethoxy)piperidin-1-yl]-5-methyl-N-(5,6,7,8-tetrahydroquinolin-6-yl)pyridazine-3-carboxamide] the figure was 6.85; with `COc1ccc(OC2CCN(c3nnc(C(=O)NCc4ccn(C)n4)cc3C)CC2)cn1` [Example 134, 6-{4-[(6-methoxypyridin-3-yl)oxy]piperidin-1-yl}-5-methyl-N-[(1-methyl-1H-pyrazol-3-yl)methyl]pyridazine-3-carboxamide], 6.82.
To `Cc1cc(C(=O)NCc2ccncc2)nnc1N1CCC(Oc2ccc3c(c2)C(=O)N(C)C3)CC1` [Example 135, 5-methyl-6-{4-[(2-methyl-3-oxo-2,3-dihydro-1H-isoindol-5-yl)oxy]piperidin-1-yl}-N-(pyridin-4-ylmethyl)pyridazine-3-carboxamide] belongs 6.80; to `COc1ccc(OC2CCN(c3nnc(C(=O)NC4CCc5cccnc5C4)cc3C)CC2)cn1` (stereo not drawn) [Example 136, 6-{4-[(6-methoxypyridin-3-yl)oxy]piperidin-1-yl}-5-methyl-N-(5,6,7,8-tetrahydroquinolin-7-yl)pyridazine-3-carboxamide], 6.76.
Turning to `COc1ccc(OC2CCN(c3nnc(C(=O)Nc4cccnc4)cc3C)CC2)cn1` [Example 137, 6-{4-[(6-methoxypyridin-3-yl)oxy]piperidin-1-yl}-5-methyl-N-pyridin-3-ylpyridazine-3-carboxamide], the pEC50 is 6.76.
`COc1ccc(O[C@@H]2CCN(c3nnc(C(=O)N[C@H]4CCc5ncccc5C4)cc3C)C[C@@H]2F)cn1` [Example 138A, 6-((3S,4R)-3-fluoro-4-((6-methoxypyridin-3-yl)oxy)piperidin-1-yl)-5-methyl-N-((S)-5,6,7,8-tetrahydroquinolin-6-yl)pyridazine-3-carboxamide] showed a pEC50 of 6.75.
To `COc1ccc(O[C@@H]2CCN(c3nnc(C(=O)N[C@@H]4CCc5ncccc5C4)cc3C)C[C@@H]2F)cn1` [Example 138B, 6-((3S,4R)-3-fluoro-4-((6-methoxypyridin-3-yl)oxy)piperidin-1-yl)-5-methyl-N-((R)-5,6,7,8-tetrahydroquinolin-6-yl)pyridazine-3-carboxamide] belongs 6.61.
With `COc1ccc(OC2CCN(c3nnc(C(=O)NCc4ccnnc4)cc3C)CC2)cn1` [Example 139, 6-{4-[(6-methoxypyridin-3-yl)oxy]piperidin-1-yl}-5-methyl-N-(pyridazin-4-ylmethyl)pyridazine-3-carboxamide] the figure was 6.75.
As for `COc1ncc(OC2CCN(c3nnc(C(=O)NCc4ccncc4)cc3C)CC2)cc1F` [Example 140, 6-{4-[(5-fluoro-6-methoxypyridin-3-yl)oxy]piperidin-1-yl}-5-methyl-N-(pyridin-4-ylmethyl)pyridazine-3-carboxamide], the negative logarithm of the EC50 (pEC50) was 6.75.
Molecule `COc1ccc(OC2CCN(c3nnc(C(=O)N[C@@H]4CCc5ncccc5C4)cc3C)CC2)cn1` [Example 141A, (R)-6-(4-((6-methoxypyridin-3-yl)oxy)piperidin-1-yl)-5-methyl-N-(5,6,7,8-tetrahydroquinolin-6-yl)pyridazine-3-carboxamide] gave a pEC50 of 7.24.
Turning to `COc1ccc(OC2CCN(c3nnc(C(=O)N[C@H]4CCc5ncccc5C4)cc3C)CC2)cn1` [Example 141B, (S)-6-(4-((6-methoxypyridin-3-yl)oxy)piperidin-1-yl)-5-methyl-N-(5,6,7,8-tetrahydroquinolin-6-yl)pyridazine-3-carboxamide], the pEC50 is 6.76.
To `COc1ccc(OC2CCN(c3nnc(C(=O)NCCn4ccnn4)cc3C)CC2)cn1` [Example 142, 6-{4-[(6-methoxypyridin-3-yl)oxy]piperidin-1-yl}-5-methyl-N-[2-(1H-1,2,3-triazol-1-yl)ethyl]pyridazine-3-carboxamide] belongs 6.73; to `Cc1nc2ccc(OC3CCN(c4nnc(C(=O)NCc5ccncc5)cc4C)CC3)cc2o1` [Example 143, 5-methyl-6-{4-[(2-methyl-1,3-benzoxazol-6-yl)oxy]piperidin-1-yl}-N-(pyridin-4-ylmethyl)pyridazine-3-carboxamide], 6.71; to `Cc1cc(C(=O)NC2CCc3cccnc3C2)nnc1N1CCC(OCC2CC2)CC1` (stereo not drawn) [Example 144, 6-[4-(cyclopropylmethoxy)piperidin-1-yl]-5-methyl-N-(5,6,7,8-tetrahydroquinolin-7-yl)pyridazine-3-carboxamide], 6.71.
To `COc1ccc(OC2CCN(c3nnc(C(=O)NC4CNC(=O)C4)cc3C)CC2)cn1` (stereo not drawn) [Example 145, 6-{4-[(6-methoxypyridin-3-yl)oxy]piperidin-1-yl}-5-methyl-N-(5-oxopyrrolidin-3-yl)pyridazine-3-carboxamide] belongs 6.71; to `COc1ccc(OC2CCN(c3nnc(C(=O)NC45CC(C4)C5)cc3C)CC2)cn1` [Example 147, N-bicyclo[1.1.1]pent-1-yl-6-{4-[(6-methoxypyridin-3-yl)oxy]piperidin-1-yl}-5-methylpyridazine-3-carboxamide], 6.68; to `Cc1nc2ccc(OC3CCN(c4nnc(C(=O)NC5C6CC5C6)cc4C)CC3)cc2o1` (stereo not drawn) [Example 148, N-bicyclo[1.1.1]pent-2-yl-5-methyl-6-{4-[(2-methyl-1,3-benzoxazol-6-yl)oxy]piperidin-1-yl}pyridazine-3-carboxamide], 6.66.
